Data on eleven compounds can be found in patent US20260356819A1, “OXOISOINDOLINYL-SUBSTITUTED […] DERIVATIVE AND USE THEREOF” (GLUETACS THERAPEUTICS (SHANGHAI) CO., LTD., priority 2023, published 2026).

What all share (format): cell-based
What all share (conditions): compounds at 50 nM and 500 nM

The target of test [1] is T1, IKZF2 (Homo sapiens, UniProt Q96SW2+Q9UKS7).
T1 construct: The supernatant was aspirated as the extracted total cell protein; endogenous in cells; host or cells: human peripheral blood mononuclear cells (hPBMCs)
The test is described as follows: Western blot degradation of IKZF2 in hPBMCs (24 h). The method in brief:
(§1)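 hPBMCs (1×10^6 cells/mL) were treated with compound at 50 nM and 500 nM for 24 h, lysed in RIPA with protease inhibitors and analysed by SDS-PAGE/Western blot. Band grayscale, normalised to internal control, gave protein remaining (%); DC50 estimated versus DMSO bands.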

The target in test [2] is T2, IKZF1 (Homo sapiens, UniProt Q13422+Q96SW2).
T2 construct: The supernatant was aspirated as the extracted total cell protein; endogenous in cells; host or cells: human peripheral blood mononuclear cells (hPBMCs)
The test can be described thus: Western blot degradation of IKZF1 in hPBMCs (24 h). In a few lines: as §1
Background: In western blotting, separated proteins are transferred to a membrane and probed.

Test [3] deals with T3, CK1α (Homo sapiens, UniProt P48729+Q96SW2).
T3 construct: The supernatant was aspirated as the extracted total cell protein; endogenous in cells; host or cells: human peripheral blood mononuclear cells (hPBMCs)
The test is described as follows: Western blot degradation of CK1α in hPBMCs (24 h). The method in brief: as §1

The target of test [4] is T4, GSPT1 (Homo sapiens, UniProt P15170+Q96SW2).
T4 construct: The supernatant was aspirated as the extracted total cell protein; endogenous in cells; host or cells: human peripheral blood mononuclear cells (hPBMCs)
The test is described as follows: Western blot degradation of GSPT1 in hPBMCs (24 h). In a few lines:
as §1

The target in test [5] is T5, IKZF3 (Homo sapiens, UniProt Q96SW2+Q9UKT9).
T5 construct: The supernatant was aspirated as the extracted total cell protein; endogenous in cells; host or cells: human peripheral blood mononuclear cells (hPBMCs)
The test is described as follows: Western blot degradation of IKZF3 in hPBMCs (24 h). In a few lines: as §1

The target of test [6] is T6, WEE1 (Homo sapiens, UniProt P30291+Q96SW2).
T6 construct: The supernatant was aspirated as the extracted total cell protein; endogenous in cells; host or cells: human peripheral blood mononuclear cells (hPBMCs)
The test can be described thus: Western blot degradation of WEE1 in hPBMCs (24 h). The method in brief:
as §1

T6 sequence (P30291 whole entry): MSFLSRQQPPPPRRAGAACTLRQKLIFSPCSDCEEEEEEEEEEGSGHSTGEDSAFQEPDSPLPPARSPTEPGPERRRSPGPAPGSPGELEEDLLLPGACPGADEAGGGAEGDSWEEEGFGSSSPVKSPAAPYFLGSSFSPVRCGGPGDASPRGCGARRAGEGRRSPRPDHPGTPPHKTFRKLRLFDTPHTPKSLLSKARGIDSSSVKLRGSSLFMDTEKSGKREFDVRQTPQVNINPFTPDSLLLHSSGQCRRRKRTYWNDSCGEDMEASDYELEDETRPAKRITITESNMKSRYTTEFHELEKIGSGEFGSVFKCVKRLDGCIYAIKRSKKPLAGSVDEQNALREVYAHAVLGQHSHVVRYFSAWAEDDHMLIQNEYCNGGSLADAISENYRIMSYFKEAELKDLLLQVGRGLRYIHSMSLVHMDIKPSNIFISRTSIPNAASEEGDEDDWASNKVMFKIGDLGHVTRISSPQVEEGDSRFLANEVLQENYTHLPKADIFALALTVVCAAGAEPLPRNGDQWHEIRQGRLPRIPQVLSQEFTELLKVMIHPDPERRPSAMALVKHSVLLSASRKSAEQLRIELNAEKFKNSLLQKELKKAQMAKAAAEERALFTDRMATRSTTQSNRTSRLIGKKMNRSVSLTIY
T6 sequence (Q96SW2 whole entry): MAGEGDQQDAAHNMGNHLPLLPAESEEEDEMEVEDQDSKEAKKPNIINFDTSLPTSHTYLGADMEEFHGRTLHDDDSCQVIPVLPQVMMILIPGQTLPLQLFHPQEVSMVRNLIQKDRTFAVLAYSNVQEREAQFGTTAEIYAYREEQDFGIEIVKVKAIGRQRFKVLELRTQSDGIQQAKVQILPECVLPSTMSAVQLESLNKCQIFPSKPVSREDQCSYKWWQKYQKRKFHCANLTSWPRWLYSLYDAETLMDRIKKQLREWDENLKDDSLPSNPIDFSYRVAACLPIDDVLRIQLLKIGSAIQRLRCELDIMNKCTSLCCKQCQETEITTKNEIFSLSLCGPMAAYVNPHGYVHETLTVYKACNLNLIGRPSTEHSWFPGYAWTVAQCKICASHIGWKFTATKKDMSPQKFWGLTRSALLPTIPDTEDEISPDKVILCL
T6 sequence (Q16531 whole entry partner): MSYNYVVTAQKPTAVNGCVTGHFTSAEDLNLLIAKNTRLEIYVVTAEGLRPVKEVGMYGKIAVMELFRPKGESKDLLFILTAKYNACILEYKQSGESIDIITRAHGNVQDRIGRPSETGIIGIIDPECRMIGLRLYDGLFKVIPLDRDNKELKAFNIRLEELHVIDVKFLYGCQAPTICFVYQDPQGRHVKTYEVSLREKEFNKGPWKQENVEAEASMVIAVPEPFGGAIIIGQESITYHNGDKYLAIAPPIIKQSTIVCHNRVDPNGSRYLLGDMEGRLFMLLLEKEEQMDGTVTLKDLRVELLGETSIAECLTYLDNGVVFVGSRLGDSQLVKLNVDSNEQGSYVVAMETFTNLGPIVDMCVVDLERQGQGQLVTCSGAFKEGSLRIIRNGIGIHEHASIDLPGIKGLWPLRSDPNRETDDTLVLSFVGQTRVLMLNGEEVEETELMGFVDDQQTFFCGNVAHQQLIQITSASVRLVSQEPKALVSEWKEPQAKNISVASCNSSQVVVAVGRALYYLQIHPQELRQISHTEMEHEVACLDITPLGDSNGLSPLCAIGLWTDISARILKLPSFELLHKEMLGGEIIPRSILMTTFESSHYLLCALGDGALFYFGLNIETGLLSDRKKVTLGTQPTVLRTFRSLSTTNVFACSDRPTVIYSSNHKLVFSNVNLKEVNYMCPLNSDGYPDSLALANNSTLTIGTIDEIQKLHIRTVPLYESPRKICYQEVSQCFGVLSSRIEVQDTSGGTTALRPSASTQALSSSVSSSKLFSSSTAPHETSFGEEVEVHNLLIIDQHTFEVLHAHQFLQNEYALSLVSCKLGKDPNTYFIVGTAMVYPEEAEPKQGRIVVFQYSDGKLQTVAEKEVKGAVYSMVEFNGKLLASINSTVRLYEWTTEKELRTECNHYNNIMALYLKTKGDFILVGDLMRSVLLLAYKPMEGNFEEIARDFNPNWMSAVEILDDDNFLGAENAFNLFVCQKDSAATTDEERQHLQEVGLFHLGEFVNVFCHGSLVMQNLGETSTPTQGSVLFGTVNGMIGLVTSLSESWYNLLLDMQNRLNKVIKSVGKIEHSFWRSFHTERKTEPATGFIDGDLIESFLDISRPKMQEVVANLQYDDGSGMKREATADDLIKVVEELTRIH
T4 sequence (P15170 whole entry): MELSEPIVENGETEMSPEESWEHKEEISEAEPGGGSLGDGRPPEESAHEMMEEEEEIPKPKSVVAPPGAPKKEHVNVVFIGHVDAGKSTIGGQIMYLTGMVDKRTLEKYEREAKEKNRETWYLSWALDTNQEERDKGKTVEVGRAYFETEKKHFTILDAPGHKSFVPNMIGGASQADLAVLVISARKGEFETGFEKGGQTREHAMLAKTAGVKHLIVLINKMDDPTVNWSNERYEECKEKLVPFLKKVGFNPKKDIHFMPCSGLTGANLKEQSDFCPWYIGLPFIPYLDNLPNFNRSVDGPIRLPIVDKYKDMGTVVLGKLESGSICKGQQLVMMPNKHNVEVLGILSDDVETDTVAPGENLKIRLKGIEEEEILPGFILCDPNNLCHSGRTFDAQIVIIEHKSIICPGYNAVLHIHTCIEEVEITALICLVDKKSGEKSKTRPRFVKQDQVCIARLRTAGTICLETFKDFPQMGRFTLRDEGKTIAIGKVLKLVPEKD
T4 sequence (Q96SW2 whole entry): as the sequence (Q96SW2 whole entry) above
T4 sequence (Q16531 whole entry partner): as the sequence (Q16531 whole entry partner) above
T2 sequence (Q13422 whole entry): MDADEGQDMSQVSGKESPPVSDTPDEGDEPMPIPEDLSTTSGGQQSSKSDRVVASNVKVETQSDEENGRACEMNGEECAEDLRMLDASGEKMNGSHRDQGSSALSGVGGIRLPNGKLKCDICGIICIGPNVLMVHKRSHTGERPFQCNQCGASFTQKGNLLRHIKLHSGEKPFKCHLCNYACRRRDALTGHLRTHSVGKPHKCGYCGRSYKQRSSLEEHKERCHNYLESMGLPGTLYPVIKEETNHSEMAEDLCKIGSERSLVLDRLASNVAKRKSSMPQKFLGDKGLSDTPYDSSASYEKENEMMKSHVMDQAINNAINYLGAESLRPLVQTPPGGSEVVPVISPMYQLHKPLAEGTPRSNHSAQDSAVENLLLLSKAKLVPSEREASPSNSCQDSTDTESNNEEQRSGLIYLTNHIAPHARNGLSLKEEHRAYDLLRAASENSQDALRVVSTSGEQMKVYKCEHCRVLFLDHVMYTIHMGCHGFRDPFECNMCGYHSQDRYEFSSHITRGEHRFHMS
T2 sequence (Q96SW2 whole entry): as the sequence (Q96SW2 whole entry) above
T2 sequence (Q16531 whole entry partner): as the sequence (Q16531 whole entry partner) above
T1 sequence (Q9UKS7 whole entry): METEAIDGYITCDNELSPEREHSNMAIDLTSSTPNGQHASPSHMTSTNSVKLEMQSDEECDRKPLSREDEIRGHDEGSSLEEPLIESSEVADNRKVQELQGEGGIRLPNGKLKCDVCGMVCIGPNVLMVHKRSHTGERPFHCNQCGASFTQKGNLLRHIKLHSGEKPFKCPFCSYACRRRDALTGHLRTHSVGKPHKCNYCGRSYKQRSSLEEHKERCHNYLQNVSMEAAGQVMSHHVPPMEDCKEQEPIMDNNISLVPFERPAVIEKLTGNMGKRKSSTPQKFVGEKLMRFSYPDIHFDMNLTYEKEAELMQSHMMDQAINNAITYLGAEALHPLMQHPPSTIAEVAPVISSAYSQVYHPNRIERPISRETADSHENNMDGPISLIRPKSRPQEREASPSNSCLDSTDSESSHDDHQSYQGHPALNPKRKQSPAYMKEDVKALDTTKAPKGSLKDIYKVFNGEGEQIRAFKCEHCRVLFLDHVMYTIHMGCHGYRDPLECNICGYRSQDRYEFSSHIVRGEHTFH
T1 sequence (Q96SW2 whole entry): as the sequence (Q96SW2 whole entry) above
T1 sequence (Q16531 whole entry partner): as the sequence (Q16531 whole entry partner) above
T3 sequence (P48729 whole entry): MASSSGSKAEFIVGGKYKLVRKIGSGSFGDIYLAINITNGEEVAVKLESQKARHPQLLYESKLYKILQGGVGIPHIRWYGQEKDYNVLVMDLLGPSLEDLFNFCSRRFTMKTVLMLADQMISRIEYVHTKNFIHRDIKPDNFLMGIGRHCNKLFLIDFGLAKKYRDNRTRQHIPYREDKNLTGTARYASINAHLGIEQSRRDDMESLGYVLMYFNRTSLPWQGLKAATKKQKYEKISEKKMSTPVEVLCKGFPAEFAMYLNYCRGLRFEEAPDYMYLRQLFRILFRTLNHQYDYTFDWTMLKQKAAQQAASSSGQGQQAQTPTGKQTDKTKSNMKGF
T3 sequence (Q96SW2 whole entry): as the sequence (Q96SW2 whole entry) above
T3 sequence (Q16531 whole entry partner): as the sequence (Q16531 whole entry partner) above

With `O=C1CCN(N2C(=O)c3ccc(CN4C5CCC4CN(c4cccc(Cl)c4Cl)C5)cc3C2=O)C(=O)N1` [GT-07438, 5-((3-(2,3-dichlorophenyl)-3,8-diazabicyclo[3.2.1]octan-8-yl)methyl)-2-(2,4-dioxotetrahydropyrimidin-1(2H)-yl)isoindoline-1,3-dione], in test [1], the “IKZF2 substrate protein remaining %” value was “B (80%< substrate protein remaining % ≤100%)”. Besides, the “IKZF1 substrate protein remaining %” value in test [2] is “B (80%< substrate protein remaining % ≤100%)”. Besides, the “CK1α substrate protein remaining %” value in test [3] is recorded as “A (0% ≤ substrate protein remaining % ≤80%)”. In addition, the “GSPT1 substrate protein remaining %” value in test [4] was “A (0% ≤ substrate protein remaining % ≤80%)”. Besides, the “IKZF3 substrate protein remaining %” value in test [5] is “B (80%< substrate protein remaining % ≤100%)”. Further, the “WEE1 substrate protein remaining %” value in test [6] is “A (0% ≤ substrate protein remaining % ≤80%)”.

With `O=C1CCN(N2C(=O)c3ccc(CN4CCCN(c5cccc(Cl)c5Cl)CC4)cc3C2=O)C(=O)N1` [GT-07439, 5-((4-(2,3-dichlorophenyl)-1,4-diazepan-1-yl)methyl)-2-(2,4-dioxotetrahydropyrimidin-1(2H)-yl)isoindoline-1,3-dione], the “IKZF2 substrate protein remaining %” value in test [1] is given as “B (80%< substrate protein remaining % ≤100%)”. In addition, the “IKZF1 substrate protein remaining %” value in test [2] is on record as “B (80%< substrate protein remaining % ≤100%)”. In test [3], the “CK1α substrate protein remaining %” value is reported as “A (0% ≤ substrate protein remaining % ≤80%)”. For the same compound, in test [4], the “GSPT1 substrate protein remaining %” value is “A (0% ≤ substrate protein remaining % ≤80%)”. In test [5], the “IKZF3 substrate protein remaining %” value is listed as “B (80%< substrate protein remaining % ≤100%)”. Further, in test [6], the “WEE1 substrate protein remaining %” value is “B (80%< substrate protein remaining % ≤100%)”.

Turning to `O=C1CCN(N2C(=O)c3ccc(CN4CC=C(c5ccnc(Cl)c5Cl)CC4)cc3C2=O)C(=O)N1` [GT-07440, 5-((2′,3′-dichloro-3,6-dihydro-[4,4′-bipyridin]-1(2H)-yl)methyl)-2-(2,4-dioxotetrahydropyrimidin-1(2H)-yl)isoindoline-1,3-dione], the “IKZF2 substrate protein remaining %” value in test [1] was “B (80%< substrate protein remaining % ≤100%)”. Moreover, the “IKZF1 substrate protein remaining %” value in test [2] was “B (80%< substrate protein remaining % ≤100%)”. For the same compound, the “CK1α substrate protein remaining %” value in test [3] is reported as “A (0% ≤ substrate protein remaining % ≤80%)”. Besides, in test [4], the “GSPT1 substrate protein remaining %” value is “A (0% ≤ substrate protein remaining % ≤80%)”. Further, the “IKZF3 substrate protein remaining %” value in test [5] is recorded as “B (80%< substrate protein remaining % ≤100%)”. Also, in test [6], the “WEE1 substrate protein remaining %” value is listed as “A (0% ≤ substrate protein remaining % ≤80%)”.

On to `O=C1CCN(N2C(=O)c3ccc(CN4CC=C(c5ccoc5)CC4)cc3C2=O)C(=O)N1` [GT-07442, 2-(2,4-dioxotetrahydropyrimidin-1(2H)-yl)-5-((4-(furan-3-yl)-3,6-dihydropyridin-1(2H)-yl)methyl)isoindoline-1,3-dione], for which the “IKZF2 substrate protein remaining %” value in test [1] was “B (80%< substrate protein remaining % ≤100%)”. For the same compound, in test [2], the “IKZF1 substrate protein remaining %” value was “B (80%< substrate protein remaining % ≤100%)”. In test [3], the “CK1α substrate protein remaining %” value is “B (80%< substrate protein remaining % ≤100%)”. The “GSPT1 substrate protein remaining %” value in test [4] is recorded as “A (0% ≤ substrate protein remaining % ≤80%)”. In addition, the “IKZF3 substrate protein remaining %” value in test [5] is “A (0% ≤ substrate protein remaining % ≤80%)”. The “WEE1 substrate protein remaining %” value in test [6] is “A (0% ≤ substrate protein remaining % ≤80%)”.

`O=C1CCN(N2C(=O)c3ccc(CN4CC=C(c5cncc(Cl)c5)CC4)cc3C2=O)C(=O)N1` [GT-07491, 5-((5-chloro-3′,6′-dihydro-[3,4′-bipyridin]-1′ (2′H)-yl)methyl)-2-(2,4-dioxotetrahydropyrimidin-1(2H)-yl)isoindoline-1,3-dione]: the “IKZF2 substrate protein remaining %” value in test [1] is “B (80%< substrate protein remaining % ≤100%)”. In test [2], the “IKZF1 substrate protein remaining %” value is “B (80%< substrate protein remaining % ≤100%)”. The “CK1α substrate protein remaining %” value in test [3] is “B (80%< substrate protein remaining % ≤100%)”. Besides, in test [4], the “GSPT1 substrate protein remaining %” value is listed as “A (0% ≤ substrate protein remaining % ≤80%)”. In test [5], the “IKZF3 substrate protein remaining %” value is “B (80%< substrate protein remaining % ≤100%)”. In addition, the “WEE1 substrate protein remaining %” value in test [6] is recorded as “A (0% ≤ substrate protein remaining % ≤80%)”.

Turning to `O=C1CCN(N2C(=O)c3ccc(CN4CC=C(c5ncccc5F)CC4)cc3C2=O)C(=O)N1` [GT-07492, 2-(2,4-dioxotetrahydropyrimidin-1(2H)-yl)-5-((3-fluoro-3′,6′-dihydro-[2,4′-bipyridin]-1′ (2′H)-yl)methyl)isoindoline-1,3-dione], in test [1], the “IKZF2 substrate protein remaining %” value is on record as “B (80%< substrate protein remaining % ≤100%)”. Moreover, in test [2], the “IKZF1 substrate protein remaining %” value is “B (80%< substrate protein remaining % ≤100%)”. The “CK1α substrate protein remaining %” value in test [3] is listed as “A (0% ≤ substrate protein remaining % ≤80%)”. Further, in test [4], the “GSPT1 substrate protein remaining %” value is on record as “B (80%< substrate protein remaining % ≤100%)”. In test [5], the “IKZF3 substrate protein remaining %” value is “B (80%< substrate protein remaining % ≤100%)”. For the same compound, the “WEE1 substrate protein remaining %” value in test [6] is on record as “B (80%< substrate protein remaining % ≤100%)”.

For the compound `O=C1CCN(N2C(=O)c3ccc(CN4CCC(c5ccnc(F)c5F)CC4)cc3C2=O)C(=O)N1` [GT-07493, 5-((4-(2,3-difluoropyridin-4-yl)piperidin-1-yl)methyl)-2-(2,4-dioxotetrahydropyrimidin-1(2H)-yl)isoindoline-1,3-dione], in test [1], the “IKZF2 substrate protein remaining %” value is “B (80%< substrate protein remaining % ≤100%)”. The “IKZF1 substrate protein remaining %” value in test [2] is given as “B (80%< substrate protein remaining % ≤100%)”. Besides, in test [3], the “CK1α substrate protein remaining %” value is reported as “A (0% ≤ substrate protein remaining % ≤80%)”. In addition, the “GSPT1 substrate protein remaining %” value in test [4] is reported as “B (80%< substrate protein remaining % ≤100%)”. In test [5], the “IKZF3 substrate protein remaining %” value was “A (0% ≤ substrate protein remaining % ≤80%)”. Moreover, the “WEE1 substrate protein remaining %” value in test [6] was “B (80%< substrate protein remaining % ≤100%)”.

For `O=C1CCN(N2C(=O)c3ccc(CN4CC=C(c5ccnc(F)c5F)CC4)cc3C2=O)C(=O)N1` [GT-07494, 5-((2′,3′-difluoro-3,6-dihydro-[4,4′-bipyridin]-1(2H)-yl)methyl)-2-(2,4-dioxotetrahydropyrimidin-1(2H)-yl)isoindoline-1,3-dione], the “IKZF2 substrate protein remaining %” value in test [1] was “B (80%< substrate protein remaining % ≤100%)”. Besides, in test [2], the “IKZF1 substrate protein remaining %” value is listed as “B (80%< substrate protein remaining % ≤100%)”. Further, the “CK1α substrate protein remaining %” value in test [3] is “A (0% ≤ substrate protein remaining % ≤80%)”. Moreover, the “GSPT1 substrate protein remaining %” value in test [4] is reported as “B (80%< substrate protein remaining % ≤100%)”. Also, the “IKZF3 substrate protein remaining %” value in test [5] is reported as “B (80%< substrate protein remaining % ≤100%)”. Moreover, the “WEE1 substrate protein remaining %” value in test [6] was “A (0% ≤ substrate protein remaining % ≤80%)”.

Turning to `O=C1CCN(N2Cc3cc(CN4CCC(c5ccon5)CC4)ccc3C2=O)C(=O)N1` [GT-07495, 1-(5-((4-(isoxazol-3-yl)piperidin-1-yl)methyl)-1-oxoisoindolin-2-yl)dihydropyrimidine-2,4(1H,3H)-dione], the “IKZF2 substrate protein remaining %” value in test [1] is “B (80%< substrate protein remaining % ≤100%)”. The “IKZF1 substrate protein remaining %” value in test [2] is “B (80%< substrate protein remaining % ≤100%)”. In test [3], the “CK1α substrate protein remaining %” value is “A (0% ≤ substrate protein remaining % ≤80%)”. The “GSPT1 substrate protein remaining %” value in test [4] was “A (0% ≤ substrate protein remaining % ≤80%)”. In addition, in test [5], the “IKZF3 substrate protein remaining %” value is on record as “B (80%< substrate protein remaining % ≤100%)”. Also, the “WEE1 substrate protein remaining %” value in test [6] was “B (80%< substrate protein remaining % ≤100%)”.

Turning to `O=C1CCN(N2Cc3cc(CN4CCN(c5noc6cc(F)ccc56)CC4)ccc3C2=O)C(=O)N1` [GT-07496, 1-(5-((4-(6-fluorobenzo[d]isoxazol-3-yl)piperazin-1-yl)methyl)-1-oxoisoindolin-2-yl)dihydropyrimidine-2,4(1H,3H)-dione], the “IKZF2 substrate protein remaining %” value in test [1] is “B (80%< substrate protein remaining % ≤100%)”. The “IKZF1 substrate protein remaining %” value in test [2] is listed as “B (80%< substrate protein remaining % ≤100%)”. Further, in test [3], the “CK1α substrate protein remaining %” value is recorded as “A (0% ≤ substrate protein remaining % ≤80%)”. Moreover, in test [4], the “GSPT1 substrate protein remaining %” value is “A (0% ≤ substrate protein remaining % ≤80%)”. In test [5], the “IKZF3 substrate protein remaining %” value was “B (80%< substrate protein remaining % ≤100%)”. For the same compound, the “WEE1 substrate protein remaining %” value in test [6] is recorded as “B (80%< substrate protein remaining % ≤100%)”.

As to `O=C1CCN(N2Cc3cc(CN4CCN(c5noc6ccncc56)CC4)ccc3C2=O)C(=O)N1` [GT-07497, 1-(5-((4-(isoxazolo[4,5-c]pyridin-3-yl)piperazin-1-yl)methyl)-1-oxoisoindolin-2-yl)dihydropyrimidine-2,4(1H,3H)-dione], in test [1], the “IKZF2 substrate protein remaining %” value is listed as “A (0% ≤ substrate protein remaining % ≤80%)”. Further, the “IKZF1 substrate protein remaining %” value in test [2] was “A (0% ≤ substrate protein remaining % ≤80%)”. Besides, the “CK1α substrate protein remaining %” value in test [3] is “A (0% ≤ substrate protein remaining % ≤80%)”. Besides, in test [4], the “GSPT1 substrate protein remaining %” value is “A (0% ≤ substrate protein remaining % ≤80%)”. Moreover, the “IKZF3 substrate protein remaining %” value in test [5] was “B (80%< substrate protein remaining % ≤100%)”. Also, the “WEE1 substrate protein remaining %” value in test [6] is listed as “A (0% ≤ substrate protein remaining % ≤80%)”.
